Experiments:
[1] = biological target: T1, E. coli DNA polymerase I (large fragment, Klenow fragment), wild type (Escherichia coli, UniProt P00582); assay: Inhibition of DNA synthesis on synthetic Primer-Template A, competition of dATP and ddATP (Example 9); assay type: biochemical; conditions: in the presence of 10 µM dATP, 37°C, read-out: [ddATP] for 50% inhibition
T1 construct: The large fragment of E. coli DNA polymerase I, commonly called the Klenow fragment; made in house
Experimental: (§1) In this example the competition between a dNTP and a ddNTP is assayed for use at a single site in a synthetic primer-template. This assay differs from the others in that it limits the comparison of the use of the two substrates to a single site, avoiding the complication of sequence-specific variability in discrimination. […]
(§2) Each reaction mixture contains 25 pmoles each of primer and template. […] The mixtures are incubated at 37°C for 1 min (70°C for thermophilic DNA polymerases), and the reactions are initiated by the addition of 5 µl aliquots (0.01 to 1 unit) of the DNA polymerase being analyzed diluted in 20 mM TrisHCl, pH 7.5, 10 mM 2-mercaptoethanol and 0.05% bovine serum albumin. […] The disks are then dried under a heat lamp and counted in a scintillation counter in 5 ml of fluor (Opti-Fluor O, Packard). From the amount of radioactivity on each disk, the amount […] incorporated was determined. […]
(§3) All reactions are carried out with a constant amount of the DNA polymerase being analyzed; the amount of DNA polymerase should be sufficient to replicate 50% of the total dCMP residues in the single-stranded region of the template in the 10 min incubation in the presence of 10 µM dATP and the absence of ddATP. […]

[2] = biological target: T2, Taq DNA polymerase (unmodified DNA polymerase from Thermus aquaticus) (Thermus aquaticus, UniProt P19821); assay: as above; assay type: biochemical; conditions: in the presence of 10 µM dATP, 70°C, read-out: [ddATP] for 50% inhibition
T2 construct: to the gene that produces the full length Taq DNA polymerase; made in house
Experimental: as §1, §2, §3

T1 sequence (P00582 324-928): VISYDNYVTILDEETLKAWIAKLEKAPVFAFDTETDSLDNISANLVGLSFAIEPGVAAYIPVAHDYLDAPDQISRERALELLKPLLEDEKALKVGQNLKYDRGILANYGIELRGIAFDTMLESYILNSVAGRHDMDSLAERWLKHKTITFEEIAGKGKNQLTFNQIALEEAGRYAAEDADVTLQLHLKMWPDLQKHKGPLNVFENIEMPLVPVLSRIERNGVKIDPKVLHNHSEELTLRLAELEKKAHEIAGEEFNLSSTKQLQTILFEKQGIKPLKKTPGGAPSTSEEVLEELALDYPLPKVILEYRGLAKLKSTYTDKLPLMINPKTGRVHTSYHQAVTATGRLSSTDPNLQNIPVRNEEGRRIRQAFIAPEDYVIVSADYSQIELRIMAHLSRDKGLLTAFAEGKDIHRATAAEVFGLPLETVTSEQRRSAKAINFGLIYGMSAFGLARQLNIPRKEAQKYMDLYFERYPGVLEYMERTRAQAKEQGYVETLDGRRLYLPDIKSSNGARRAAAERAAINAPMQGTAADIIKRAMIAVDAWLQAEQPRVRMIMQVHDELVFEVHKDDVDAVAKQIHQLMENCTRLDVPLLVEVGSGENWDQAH
T2 sequence (P19821 whole entry): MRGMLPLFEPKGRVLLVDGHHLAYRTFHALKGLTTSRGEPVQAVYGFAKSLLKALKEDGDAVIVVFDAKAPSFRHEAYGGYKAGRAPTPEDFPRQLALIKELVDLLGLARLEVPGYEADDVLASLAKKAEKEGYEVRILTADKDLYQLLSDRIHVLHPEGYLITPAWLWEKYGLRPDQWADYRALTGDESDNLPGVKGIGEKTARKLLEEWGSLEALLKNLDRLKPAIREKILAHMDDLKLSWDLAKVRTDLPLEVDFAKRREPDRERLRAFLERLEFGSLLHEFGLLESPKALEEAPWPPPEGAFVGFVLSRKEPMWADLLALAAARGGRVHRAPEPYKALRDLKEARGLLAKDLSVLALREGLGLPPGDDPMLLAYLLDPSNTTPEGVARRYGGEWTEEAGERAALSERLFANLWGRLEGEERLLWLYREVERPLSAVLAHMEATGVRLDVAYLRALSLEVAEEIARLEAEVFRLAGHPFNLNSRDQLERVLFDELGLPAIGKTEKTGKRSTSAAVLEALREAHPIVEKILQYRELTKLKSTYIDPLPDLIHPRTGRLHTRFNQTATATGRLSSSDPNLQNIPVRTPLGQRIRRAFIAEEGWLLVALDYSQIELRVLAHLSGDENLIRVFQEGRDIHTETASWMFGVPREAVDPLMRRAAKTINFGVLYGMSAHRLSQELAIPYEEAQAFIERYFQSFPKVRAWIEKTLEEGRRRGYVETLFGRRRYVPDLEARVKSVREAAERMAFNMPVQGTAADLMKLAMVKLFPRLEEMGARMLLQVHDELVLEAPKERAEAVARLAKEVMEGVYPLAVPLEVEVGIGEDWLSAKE

Nc1ncnc2c1ncn2[C@H]1CC[C@@H](COP(=O)(O)OP(=O)(O)OP(=O)(O)O)O1 [ddATP]
IC50 [1]: > 500 µM
IC50 [2]: > 500 µM

— patent EP0655506B1 (priority 1994, dated 1995)
